Reference: patent US6723897B2, “Methods for controlling gibberellin levels” (Monsanto Technology, LLC, priority 1998, dated 2004)

Columns and labels:
[1] = tested on: wild-type soybean line A3237; test: Experiment II second greenhouse test, seed imbibition, wild-type soybean; format: in vivo, Glycine max; settings: 0.25 mg/ml; seeds imbibed 6 hours
In short: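 Twenty seeds per treatment were imbibed 6 hours in test solutions, with dry, 1% ethanol and water-imbibed controls. Seeds were then planted and grown three weeks in the greenhouse with sub-irrigation, under 16 h light/8 h dark at 300-400 μmol m^−2 s^−1. Scoring covered dwarf, intermediate and tall plant counts, plant height, uniformity of rescue and visual effects.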

[2] = tested on: wild-type soybean line A4922; test: Field trial of seed coating application rates, wild-type soybean
Method: GA3, GA3-3-acetate, GA5, GA9, and GA12 are evaluated in further field trials. […] The objectives of these tests are: 1) to determine if seed coatings, as compared to imbibition, of GA compounds facilitate rescue of constitutively GA-deficient transgenic dwarf soybeans (transgenic lines 719−2 plus 719+17) without causing elongation of wild-type soybeans (line A4922), and 2) to determine the seed treatment rate ranges for each of the selected GA compounds that would provide rescue of constitutively GA-deficient transgenic dwarf soybeans (transgenic lines 719−2 plus 719+17) without causing elongation of wild-type soybeans (line A4922).
Seeds are treated with GA3, GA5, GA9, GA12, and GA3-3-acetate at rates of 0, 0.1, 1, 10, and 100 μg/seed. These GA compounds are applied to the seeds using a Hege 11 seed treater (Hans-Ulrich Hege GmbH & Co., Waldenburg, Germany); 100% acetone is used as the carrier solvent. The amount of liquid introduced into the seed treater is six fluid ounces/100 lbs seed rate. In addition, GA12 is tested at 50 μg/seed. The untreated control (UTC) consisted of dry, untreated seeds. Seeds of constitutively GA-deficient transgenic dwarf soybean line 719 and wild-type A4922 are sown in both light and heavy soil. The planting depth is 0.5 to 1 inch (1.27 to 2.54 cm); watering is via drip irrigation. The experiment is carried out in three repetitions, using 25 seeds/plot (one five foot (152.4 cm) long row) for line 719, and 75 seeds/plot (two eight foot (243.8 cm) rows) for line A4922. Observations included total emergence, number of dwarfs not rescued, uniformity in plant height, average plant height, visual notes, and digital photos.
In all the experiments reported in Tables 17-24, treatments are replicated three times in a randomized block design. Data are analyzed using LSD (least significant difference) 0.05 probability using the PRM 5.0 Statistical Analysis Program (SAS Institute, North Carolina).

[3] = tested on: non-transgenic soybean line A4922; test: Field trial of seed coatings under soil compaction / different soils, wild-type soybean; format: in vivo, Glycine max; settings: for Count (emergence) / Height (total plant height): A4922
Method: The second trial (data reported in Tables 22-24) tested the precursors under conditions of soil compaction.
As noted above, the second trial tested the noted precursors under conditions of soil compaction. These experiments are performed in the same manner as in the first trial, except that the soil is compacted with an all-terrain vehicle.
“Height” equals total plant height in cm.

[4] = tested on: transgenic line 719 soybean; test: Field trial of seed coatings under soil compaction / different soils, GA-deficient soybean; format: in vivo, Glycine max; settings: for Count (emergence) / Dwarfs (number of dwarfs not rescued) / Dwarfs (number not rescued): Line 719
[5] = Heavy soil - Loose, target rate 0.5 μg/seed, Table 23
[6] = Heavy soil - Loose, target rate 4.0 μg/seed, Table 23
[7] = Heavy soil - Loose, target rate 8.0 μg/seed, Table 23
[8] = Heavy soil - Loose, target rate 16.0 μg/seed, Table 23
[9] = Heavy soil - compacted, target rate 0.5 μg/seed, Table 23
[10] = Heavy soil - compacted, target rate 4.0 μg/seed, Table 23
[11] = Heavy soil - compacted, target rate 8.0 μg/seed, Table 23
[12] = Heavy soil - compacted, target rate 16.0 μg/seed, Table 23
[13] = Heavy soil - loose, target rate 0.5 μg/seed, Table 22
[14] = Heavy soil - loose, target rate 2.0 μg/seed, Table 22
[15] = Light soil - Compacted, target rate 0.5 μg/seed, Table 22
[16] = Light soil - Compacted, target rate 2.0 μg/seed, Table 22
[17] = Light soil - Loose, target rate 0.5 μg/seed, Table 24
[18] = Light soil - Loose, target rate 2.0 μg/seed, Table 24
[19] = Light soil - Loose, target rate 4.0 μg/seed, Table 24
[20] = Light soil - compacted, target rate 0.5 μg/seed, Table 24
[21] = Light soil - compacted, target rate 2.0 μg/seed, Table 24
[22] = Light soil - compacted, target rate 4.0 μg/seed, Table 24

C=C1C[C@]23C[C@@]1(O)CC[C@H]2[C@@]12C=C[C@H](O)[C@@](C)(C(=O)O1)[C@H]2[C@@H]3C(=O)O [GA3, gibberellic acid]
Significant Visual Observations on Line A3237 [1]: Poor emergence | A4922 Height, cm, Heavy soil ([2]; 0.1 μg compound per seed): 5.7 efg cm | A4922 Height, cm, Light soil ([2]; 0.1 μg compound per seed): 6.7 fg·cm | No. A4922 Emerged, Heavy soil ([2]; 0.1 μg compound per seed): 28.0 c-g | No. A4922 Emerged, Light soil ([2]; 0.1 μg compound per seed): 42.7 e-i | A4922 Height, cm, Heavy soil ([2]; 1 μg compound per seed): 6.0 efg cm | A4922 Height, cm, Light soil ([2]; 1 μg compound per seed): 8.3 ef cm | No. A4922 Emerged, Heavy soil ([2]; 1 μg compound per seed): 16.7 g | No. A4922 Emerged, Light soil ([2]; 1 μg compound per seed): 36.3 i | A4922 Height, cm, Heavy soil ([2]; 10 μg compound per seed): 10.3 cm·days | A4922 Height, cm, Light soil ([2]; 10 μg compound per seed): 12.7 cm·days | No. A4922 Emerged, Heavy soil ([2]; 10 μg compound per seed): 28.7 c-g | No. A4922 Emerged, Light soil ([2]; 10 μg compound per seed): 39.7 f-j | A4922 Height, cm, Heavy soil ([2]; 100 μg compound per seed): 21.0 a cm | A4922 Height, cm, Light soil ([2]; 100 μg compound per seed): 27.0 ab cm | No. A4922 Emerged, Heavy soil ([2]; 100 μg compound per seed): 19.7 efg | No. A4922 Emerged, Light soil ([2]; 100 μg compound per seed): 38.0 hi | Count (emergence) [3, 5]: 25.0 cde | Height (total plant height) [3, 5]: 5.0 efg cm | Count (emergence) [3, 6]: 24.7 de | Height (total plant height) [3, 6]: 8.7 a cm | Count (emergence) [3, 7]: 29.3 a-d | Height (total plant height) [3, 7]: 6.3 cde cm | Count (emergence) [3, 8]: 24.7 dc | Height (total plant height) [3, 8]: 7.0 bc cm | Count (emergence) [3, 9]: 8.3 cd | Height (total plant height) [3, 9]: 4.3 b-e cm | Count (emergence) [3, 10]: 4.0 de | Height (total plant height) [3, 10]: 8.0 a cm | Count (emergence) [3, 11]: 9.7 a-d | Height (total plant height) [3, 11]: 6.0 bc cm | Count (emergence) [3, 12]: 6.3 cde | Height (total plant height) [3, 12]: 6.7 ab cm | Count (emergence) [3, 13]: 25 cde | Height (total plant height) [3, 13]: 5.0 efg cm | Count (emergence) [3, 14]: 21 ef | Height (total plant height) [3, 14]: 6.7 bcd cm | Count (emergence) [3, 15]: 28 bcd | Height (total plant height) [3, 15]: 5.7 def cm | Count (emergence) [3, 16]: 13 ef | Height (total plant height) [3, 16]: 8.0 c cm | Count (emergence) [3, 17]: 43.0 abc | Height (total plant height) [3, 17]: 7.0 ef cm | Count (emergence) [3, 18]: 38.3 bc | Height (total plant height) [3, 18]: 9.0 cd cm | Count (emergence) [3, 19]: 37.7 c | Height (total plant height) [3, 19]: 10.3 b cm | Count (emergence) [3, 20]: 28.3 bcd | Height (total plant height) [3, 20]: 5.7 def cm | Count (emergence) [3, 21]: 12.7 ef | Height (total plant height) [3, 21]: 8.0 c cm | Count (emergence) [3, 22]: 7.7 f | Height (total plant height) [3, 22]: 10.3 b cm | emergence at approximately equivalent biological response (height) ([3]; compacted soil, FIG. 40): 68% | % Emergence, Heavy Soil-Loose ([4]; 0.1 μg/seed): 78% | % Emergence, Light Soil-Compact ([4]; 0.1 μg/seed): 59% | % Rescue, Heavy Soil-Loose ([4]; 0.1 μg/seed): 80% | % Rescue, Light Soil-Compact ([4]; 0.1 μg/seed): 100% | % Emergence, Heavy Soil-Loose ([4]; 2.0 μg/seed): 66% | % Emergence, Light Soil-Compact ([4]; 2.0 μg/seed): 51% | % Rescue, Heavy Soil-Loose ([4]; 2.0 μg/seed): 93% | % Rescue, Light Soil-Compact ([4]; 2.0 μg/seed): 100% | Count (emergence) [4, 5]: 27.3 cd | Dwarfs (number of dwarfs not rescued) [4, 5]: 2.0 cde | Count (emergence) [4, 6]: 14.3 f | Dwarfs (number of dwarfs not rescued) [4, 6]: 0 e | Count (emergence) [4, 7]: 35.3 abc | Dwarfs (number of dwarfs not rescued) [4, 7]: 0.7 cde | Count (emergence) [4, 8]: 30.7 bcd | Dwarfs (number of dwarfs not rescued) [4, 8]: 0 e | Count (emergence) [4, 9]: 7.7 efg | Dwarfs (number of dwarfs not rescued) [4, 9]: 0.3 cd | Dwarfs (number of dwarfs not rescued) ([4]; Heavy soil - compacted, target rate 2.0 μg/seed, Table 23): 0 days | Count (emergence) [4, 10]: 3.3 fg | Dwarfs (number of dwarfs not rescued) [4, 10]: 0 days | Count (emergence) [4, 11]: 8.7 g·days | Dwarfs (number of dwarfs not rescued) [4, 11]: 0 days | Count (emergence) [4, 12]: 12.0 b-e | Dwarfs (number of dwarfs not rescued) [4, 12]: 0 days | Count (emergence) [4, 13]: 27 cd | Dwarfs (number of dwarfs not rescued) [4, 13]: 2.0 cde | Count (emergence) [4, 14]: 25 de | Dwarfs (number of dwarfs not rescued) [4, 14]: 0.7 cde | Count (emergence) [4, 15]: 22 efg | Dwarfs (number of dwarfs not rescued) [4, 15]: 0 days | Count (emergence) [4, 16]: 19 fg | Dwarfs (number of dwarfs not rescued) [4, 16]: 0 days | Count (emergence) [4, 17]: 45.0 ab | Dwarfs (number not rescued) [4, 17]: 0 e | Count (emergence) [4, 18]: 43.7 ab | Dwarfs (number not rescued) [4, 18]: 0 e | Count (emergence) [4, 19]: 39.3 b | Dwarfs (number not rescued) [4, 19]: 0 e | Count (emergence) [4, 20]: 1.2e+16 fg | Dwarfs (number not rescued) [4, 20]: 0 | Count (emergence) [4, 21]: 19.3 fg | Dwarfs (number not rescued) [4, 21]: 0 | Count (emergence) [4, 22]: 26.3 c-f | Dwarfs (number not rescued) [4, 22]: 0 | rank of potential for rescuing GA-deficient dwarf soybeans without decreasing emergence ([4]; based on the last two field trials): GA9>GA5>GA3-3-acetate>GA3>GA12 | best to least selectivity order ([4]; emergence under soil compaction, margin of selectivity, rescue without overelongation, Table 22): GA9>GA5>GA3-3-acetate>GA3
